# According to PMC11678245, “The Molecular Basis of the Intrinsic and Acquired Resistance to Azole Antifungals in Aspergillus fumigatus” (Journal of Fungi, 2024):
# Where “and” joins values, the source holds several entries; their conditions need not be identical. Identical values can stand only once. Like-named read-outs stand apart in the source and are kept apart here.
# How the values were obtained:
# [1] = test system: S. cerevisiae strain ARE I301T (AfCyp51A-6×His I301T, AfCprA2, AfErg6-FLAG); test: MIC80 susceptibility, strain I301T; format: cell-based, Saccharomyces cerevisiae; conditions: for MIC80: ± SD
# Protocol: (§1) The susceptibilities of S. cerevisiae strains to antifungal drugs were determined as minimum growth inhibitory concentration (MIC) values in 200 μL SD pH 6.8 [24]. Serial 2-fold dilutions of 100 μL of azole or control drugs in SD pH 6.8 were prepared in a 96-well microtiter plate. A portion of a 2 mL SD pH 6.8 overnight culture of the test strain was inoculated into 3 mL fresh SD pH 6.8 and incubated for 4 to 6 h at 30 °C to generate logarithmic-phase cells. These cells were then diluted with fresh SD pH 6.8 to OD600nm = 0.01 (3 × 10^4 CFU), and 100 μL of this cell suspension was added to microtiter plate wells. Cell growth after 48 h incubation at 30 °C with shaking at 200 rpm was determined at 600 nm using a BioTek™ Synergy™ 2 multi-Mode microplate reader controlled using Gen5™ Data Analysis Software version 3.16.10 (BioTek Instruments, Winooski, VT, USA). MIC80 values (80% growth inhibition in the presence of the test drug compared with the untreated control) for each yeast construct were determined as technical triplicates repeated three times for three separate clones.
# [2] = target: T1, AfCYP51B-6×His (Aspergillus fumigatus, UniProt E9QY26); test: Type II binding of azole drugs (difference spectra); conditions: for λpeak (type II difference spectrum) / λtrough (type II difference spectrum) / ΔAmax (type II binding) / Kd: 1 μM enzyme; for ΔAmax (type II binding) / Kd: Hill equation; for Hill Number / Kd: type II binding
# T1 sequence (E9QY26 1-524): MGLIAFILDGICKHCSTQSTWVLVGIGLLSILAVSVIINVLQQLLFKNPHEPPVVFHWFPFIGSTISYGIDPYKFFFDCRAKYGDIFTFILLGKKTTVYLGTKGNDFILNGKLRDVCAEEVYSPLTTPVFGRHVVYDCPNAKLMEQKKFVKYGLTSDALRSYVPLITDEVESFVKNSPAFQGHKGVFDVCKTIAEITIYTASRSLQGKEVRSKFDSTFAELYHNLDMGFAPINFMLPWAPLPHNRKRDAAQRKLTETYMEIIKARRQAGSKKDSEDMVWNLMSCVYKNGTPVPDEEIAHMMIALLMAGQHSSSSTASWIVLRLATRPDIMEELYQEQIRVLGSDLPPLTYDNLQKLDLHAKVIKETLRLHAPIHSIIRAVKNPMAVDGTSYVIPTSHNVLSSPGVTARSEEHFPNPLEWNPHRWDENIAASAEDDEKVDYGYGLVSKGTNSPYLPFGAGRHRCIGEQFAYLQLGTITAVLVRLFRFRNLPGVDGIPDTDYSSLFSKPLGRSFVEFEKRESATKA
# Protocol: (§2) The concentration of AfCYP51A and AfCYP51B, purified using Ni-NTA affinity chromatography and used for the spectrophotometric type I and type II binding assays, was calculated using an extinction co-efficient of λ417nm = 117 mM^−1 cm^−1 applied to the absolute absorption spectrum of the preparations. In addition, the amount of “active” cytochrome P450 enzyme was determined using the carbon monoxide (CO) binding spectra of these preparations.
# (§3) Type II binding difference spectra were obtained using 1 μM of affinity-purified CYP51 enzymes. VCZ, PCZ, VT-1161, DCZ, and MCF working solutions were prepared in DMSO, while FLC was prepared in Milli-Q water. Azole drugs were added to the sample cuvette, and corresponding amounts of DMSO or Milli-Q water were added to the reference cuvette. Drug binding curves were plotted using the difference spectrum peak and trough detected in the range of 410–425 nm. Dissociation constants (Kd) were determined by nonlinear regression (Levenberg–Marquardt algorithm) of the difference in absorbance between the peak and trough against the azole concentration using a rearrangement of the Morrison equation or the Hill equation [7]. GraphPad Prism 9.2.0 software was used to identify the best fit for the data.
# [3] = target: AfCYP51A-6×His (Aspergillus fumigatus, UniProt Q4WNT5); test: as above; conditions: for λpeak (type II difference spectrum) / λtrough (type II difference spectrum) / ΔAmax (type II binding) / Hill Number / Kd: AfCYP51A; for λpeak (type II difference spectrum) / λtrough (type II difference spectrum) / ΔAmax (type II binding) / Kd: 1 μM enzyme; for ΔAmax (type II binding) / Kd: Hill equation
# Protocol: as §2, §3
# [4] = test system: S. cerevisiae strain ARE (Y2746); test: Sterol analysis of recombinant yeast strain (GC-MS); format: cell-based, Saccharomyces cerevisiae; conditions: VCZ at concentration slowing growth rate by ~50%, 20% without VCZ
# Protocol: (§4) Yeast strains grown overnight in SD medium pH 6.8 were inoculated in 20 mL fresh medium and grown to OD600nm = 0.5. The cultures were then treated with VCZ at a concentration that reduced the rate of cell growth by ~50%. Untreated control cultures were harvested by centrifugation after 8 h at a cell density of ~2.5, and VCZ-treated cultures were harvested after ~16 h at a similar cell density. The harvested cells were prepared for sterol extraction and analysis using the method described by Müller et al..
# [5] = test system: S. cerevisiae strain BRE (Y2747); test: as above; format: cell-based, Saccharomyces cerevisiae; conditions: VCZ at concentration slowing growth rate by ~50%, ~1% without VCZ
# Protocol: as §4
# [6] = test system: S. cerevisiae strain ADΔΔ (native ScCYP51); test: MIC80 susceptibility, host strain ADΔΔ; format: cell-based; conditions: Saccharomyces cerevisiae, Table 2, SD pH 6.8, 48 h, 30 °C
# Protocol: as §1
# [7] = Saccharomyces cerevisiae, 48 h, pH 6.8, Table 2, strain I301T, SD pH 6.8, 48 h, 30 °C, read-out: MIC80
# Sequence of AfCYP51A-6×His (Q4WNT5 whole entry): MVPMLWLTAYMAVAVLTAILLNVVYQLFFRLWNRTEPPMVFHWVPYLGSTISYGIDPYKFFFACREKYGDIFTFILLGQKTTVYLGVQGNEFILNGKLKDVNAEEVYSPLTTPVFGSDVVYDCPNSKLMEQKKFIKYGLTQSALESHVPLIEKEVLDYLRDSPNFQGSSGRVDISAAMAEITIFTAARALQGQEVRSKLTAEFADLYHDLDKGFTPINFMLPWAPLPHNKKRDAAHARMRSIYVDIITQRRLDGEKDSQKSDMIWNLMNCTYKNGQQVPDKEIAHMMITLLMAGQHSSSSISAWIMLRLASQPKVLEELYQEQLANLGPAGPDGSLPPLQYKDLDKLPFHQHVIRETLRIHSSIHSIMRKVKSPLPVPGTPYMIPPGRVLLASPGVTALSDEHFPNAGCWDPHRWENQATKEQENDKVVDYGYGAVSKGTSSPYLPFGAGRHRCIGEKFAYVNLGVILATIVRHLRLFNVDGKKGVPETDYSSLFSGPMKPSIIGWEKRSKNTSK
SMILES,"MIC80 [1, 7]","MIC80 ([1]; Table 2, strain I301T, SD pH 6.8, 48 h, 30 °C)",λpeak (type II difference spectrum) [2],λtrough (type II difference spectrum) [2],ΔAmax (type II binding) [2],Hill Number [2],Kd [2],λpeak (type II difference spectrum) [3],λtrough (type II difference spectrum) [3],ΔAmax (type II binding) [3],Hill Number ([3]; type II binding),Kd ([3]; type II binding),eburicol content in the presence of VCZ [4],eburicol content in the presence of VCZ [5],MIC80 [6],greater susceptibility (MIC80) of strain I301T compared with strain ARE [1],"MIC80 ([1]; Saccharomyces cerevisiae, Table 3, strain ARE I301T, read-out: MIC80)",Kd of AfCYP51A relative to AfCYP51B ([3]; type II binding)
"C[C@@H](c1ncncc1F)[C@](O)(Cn1cncn1)c1ccc(F)cc1F [VCZ, voriconazole]",< 0.12 µM,0.11 ± 0.00 µM,427 nm,410 nm,0.03,1.12,800 ± 310 nM,422 nm,392 nm,0.05,1.10,1500 nM and 1520 nM,25 % of total sterol,~ 20 % of total sterol,0.06 µM,,,
"OC(Cn1cncn1)(Cn1cncn1)c1ccc(F)cc1F [FLC, fluconazole]",77.2 ± 5.9 µM,,425 nm,407 nm,0.09,1.75,1430 ± 70 nM,422 nm,383 nm,0.10,0.72,3230 ± 1130 nM,,,3.3 ± 0.2 µM,3 fold,65 ± 14 µM,2.26 fold
